Measured values reported in publication PMC6131539, “Behavioral Effects of a Potential Novel TAAR1 Antagonist” (Frontiers in Pharmacology, 2018).

Tests used:
[1] = tested on: WT littermates (C57BL/6J × 129S2/Sv); test: Amphetamine-induced locomotor activity, co-injection, WT littermates; format: in vivo, mice; conditions: 5 mg/kg co-injected with amphetamine 2 mg/kg, p = 0.049
Protocol: The Taarl^-/- (TAAR1-KO) mice were obtained from Lundbeck ([Wolinsky et al., 2007]). All wild type (WT) and TAAR1-KO mice used for experiments were generated from TAAR1-KO heterozygous mice in a C57BL/6J x 129S1/Sv mixed background.
(§1) Experimentally naïve mice, of at least 12 weeks of age, were used for all behavioral experiments. The mice were randomly assigned to treatment or control groups, balanced by sex and weight. Locomotor activity was assessed using the automated locomotor analysis monitors (Omnitech Electronics, Columbus, OH, United States). The apparatus included four open field monitors. Each Open Field monitor consisted of sets of 16 light beams arrayed in the horizontal X and Y axes. The hardware detected beams broken by the animal, which allowed the software to determine the location of the mouse in the cage. Total distance covered by mice was used to characterize locomotor activity of the animals. The monitors were divided into four compartments (20 cm × 20 cm). Animals were tested individually for defined periods with 5-min intervals. The mice were first weighed and then placed into the apparatus, allowing for 30 min habituation. Following the habituation, the mice were removed from the al apparatus and injected with drugs (see below for administration) or vehicle and returned immediately to the locomotor chamber.

[2] = tested on: C57BL/6J mice; test: Amphetamine-induced locomotor activity, co-injection, C57BL/6J mice; format: in vivo; conditions: 60 min
Protocol: as §1, with “chamber. The locomotor activity was then measured for additional 1 h. After the experiments, the animals were euthanized by cervical dislocation.” for “chamber.”
(§2) All drug solutions were prepared freshly on the day of the experiment and injected i.p. at the volume of 10 ml/kg. […] Amphetamine was dissolved in 0.9% saline at a concentration of 0.2 mg/mL.
The effect of compound 22 (5, 15, 20, 30, and 50 mg/kg) on locomotor activity, in mice, in combination to a single, sub-maximal dose of amphetamine (2 mg/kg) was carried out (Figure 2). […] Although not significant, there was a trend toward an increase in locomotor activity at the dose of 5 mg/kg as well (28% increase, p = 0.32).
FIGURE 2 In vivo studies with compound 22 co-injected with amphetamine in WT mice. Wild type C57BL/6J mice were first habituated for 30 min followed by the co-injection of amphetamine (2 mg/kg) and saline or compound 22 at doses 5, 15, 20, 25, 30, and 50 mg/kg. The locomotor activity was assessed for 60 min after the injection. (A) Locomotor activity over time for 2 mg/kg amphetamine only or co-injected with 5, 15, or 20 mg/kg compound 22; (B) locomotor activity over time for 2 mg/kg amphetamine only or co-injected with 30 or 50 mg/kg compound 22; (C) sum of locomotor activity over 60 min after the injection of amphetamine and compound 22. Data are means ± SEM; N = 12–18 for compound 22 treated alone and N = 66 for amphetamine treated alone. A one way ANOVA was performed [F(5,126) = 4.788, p = 0.0005] followed by Dunnett’s post hoc analyses (^∗p < 0.05, ^∗∗∗p < 0.001).

[3] = tested on: TAAR1; set-up: method as in Lam et al., 2015b; conditions: previous study; ref Lam et al., 2015b; read-out: IC50 (TAAR1 antagonist); cited from earlier work
[4] = tested on: C57BL/6J mice; test: Cocaine-induced locomotor activity, co-injection, C57BL/6J mice; format: in vivo; conditions: 60 min
Protocol: as §1, with “chamber. The locomotor activity was then measured for additional 1 h. After the experiments, the animals were euthanized by cervical dislocation.” for “chamber.”
as §2
Since compound 22 enhanced amphetamine-induced locomotor response, we assessed if compound 22 could also enhance cocaine-induced locomotion in WT C57BL/6J mice (Figure 3).
The locomotor activity was assessed for 60 min after the injection. […] Data are means ± SEM; N = 7–9. One way ANOVA was performed [F(3,28) = 7.138, p = 0.001] followed by Dunnett’s post hoc analyses (^∗p < 0.05, ^∗∗∗p < 0.001).

[5] = tested on: C57BL/6J mice; test: Basal locomotor activity in C57BL/6J mice; format: in vivo
Protocol: as §1, with “chamber. The locomotor activity was then measured for additional 1 h. After the experiments, the animals were euthanized by cervical dislocation.” for “chamber.”
as §2
In order to assess the effects of compound 22 on basal locomotor activity, C57BL/6 mice were injected with doses of 5 and 30 mg/kg of compound 22 or vehicle (Figure 1). At the dose of 5 mg/kg, compound 22 inhibited basal locomotor activity by 58% (^∗p = 0.02). Although not significant, there was a trend toward a decrease in locomotor activity at the dose of 30 mg/kg as well (26% decrease, p = 0.15).
FIGURE 1 In vivo studies with compound 22 on basal locomotor activity. Wild type C57BL/6J mice were first habituated for 30 min followed by co-injection of saline or compound 22 at a dose of 5 or 30 mg/kg. The locomotor activity was assessed for 60 min after injection. […]

Compound: Clc1ccc(CNCc2ccc(Cn3cncn3)cc2)c(Cl)c1 [compound 22]
- potentiation of amphetamine locomotor response [1]: 44%
- increase in amphetamine-stimulated locomotor activity ([2]; 5 mg/kg i.p. co-injected with amphetamine 2 mg/kg, not significant, p = 0.32): 28%
- increase in amphetamine-stimulated locomotor activity ([2]; 15 mg/kg i.p. co-injected with amphetamine 2 mg/kg, p = 0.04): 44%
- increase in amphetamine-stimulated locomotor activity ([2]; 20 mg/kg i.p. co-injected with amphetamine 2 mg/kg, p = 0.02): 57%
- increase in amphetamine-stimulated locomotor activity ([2]; 30 mg/kg i.p. co-injected with amphetamine 2 mg/kg, p = 0.0009): 77%
- change in amphetamine-stimulated locomotor activity ([2]; 50 mg/kg i.p. co-injected with amphetamine 2 mg/kg): no difference in locomotor activity
- IC50 [3]: > 100 µM
- increase in cocaine-induced locomotor activity ([4]; 5 mg/kg i.p. co-injected with cocaine 10 mg/kg, p = 0.03): 77%
- increase in cocaine-induced locomotor activity ([4]; 15 mg/kg i.p. co-injected with cocaine 10 mg/kg, p = 0.02): 84%
- increase in cocaine-induced locomotor activity ([4]; 25 mg/kg i.p. co-injected with cocaine 10 mg/kg, p = 0.003): 124%
- inhibition of basal locomotor activity ([5]; 5 mg/kg i.p. alone, sum over 60 min vs saline, p = 0.02): 58%
- decrease in basal locomotor activity ([5]; 30 mg/kg i.p. alone, sum over 60 min vs saline, not significant, p = 0.15): 26%
- effect on locomotor activity when administered alone ([5]; 5 and 30 mg/kg i.p., administered alone): did not stimulate locomotor activity
